Results as given in article PMC3409115, “Diverse Inhibitor Chemotypes Targeting Trypanosoma cruzi CYP51” (PLoS Neglected Tropical Diseases, 2012).

Target: T1, T. cruzi CYP51 (Trypanosoma cruzi, UniProt Q7Z1V1)
T1 construct: had the first 21 residues upstream of K22 replaced with the fragment MAKKKKK; His6 (C); made in house
Test: HTS spectral-mode binding screen, type II difference spectra scored 0-5
Conditions: spectral mode, four serial dilutions 2 µM to 12.5 µM, 2 µM CYP51

T1 sequence (Q7Z1V1 15-481, looked up, natural form): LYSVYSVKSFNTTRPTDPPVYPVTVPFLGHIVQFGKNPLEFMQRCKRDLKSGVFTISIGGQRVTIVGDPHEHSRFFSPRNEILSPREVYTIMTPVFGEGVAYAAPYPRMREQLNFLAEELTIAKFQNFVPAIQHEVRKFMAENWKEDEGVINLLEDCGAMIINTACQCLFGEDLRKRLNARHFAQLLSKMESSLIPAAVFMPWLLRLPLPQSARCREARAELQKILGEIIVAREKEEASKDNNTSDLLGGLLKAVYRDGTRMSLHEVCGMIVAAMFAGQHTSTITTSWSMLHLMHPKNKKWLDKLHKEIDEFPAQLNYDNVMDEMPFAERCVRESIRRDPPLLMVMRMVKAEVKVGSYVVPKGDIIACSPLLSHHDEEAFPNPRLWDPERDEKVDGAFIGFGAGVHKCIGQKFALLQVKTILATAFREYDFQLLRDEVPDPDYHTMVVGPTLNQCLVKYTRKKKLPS

Row | Structure (SMILES) | HTS binding score
1 | CC1=C(C(=O)Nc2ccc(F)cc2F)C(c2cccnc2)C2=C(O)CC(C)(C)CC2=N1 (stereo not shown) [Compound 159] | 4
2 | O=C(CSCc1c(Cl)cccc1Cl)NCc1cccnc1 [Compound 102] | 4
3 | CC1=NN(C(=O)COc2ccccc2C)C(O)(c2cccnc2)C1 (stereo not shown) [Compound 83] | 4
4 | COC(=O)c1sccc1NC(=O)CSCCc1ccncc1 [Compound 96] | 4
5 | Cc1[nH]c2ccccc2c1C(Nc1ccc(F)cc1)c1ccncc1 (stereo not shown) [Compound 87] | 4
6 | O=C(Nc1ccncc1)c1ccc(NS(=O)(=O)c2cccc(Cl)c2)cc1 [Compound 135] | 4
7 | COc1cccc(-c2noc(C(=O)NCCCn3ccnc3)n2)c1 [Compound 84] | 4
8 | O=C(Cc1cccc(O)c1)Nc1cc(-c2ccncc2)cnc1O [Compound 80] | 4
9 | COc1ccc(-c2nc3n(n2)C(c2cccs2)C(C(=O)Nc2cccnc2)=C(C)N3)cc1 (stereo not shown) [Compound 170] | 4
10 | O=C(Nc1ccc(F)cc1)c1ccc2c(c1)C(=O)N(Cc1cccnc1)C2=O [Compound 125] | 4
11 | C=CCOc1ccc(C2c3c(-c4ccccc4O)n[nH]c3C(=O)N2Cc2ccncc2)cc1OCC (stereo not shown) [Compound 181] | 5
12 | CC(C)(C)NC(=O)c1cccc(NC(=O)c2ccc3c(c2)C(=O)N(Cc2cccnc2)C3=O)c1 [Compound 176] | 4
13 | Cc1c(C(=O)N2CCCCC2c2cccnc2)sc2nc3n(c(=O)c12)CCCCC3 (stereo not shown) [Compound 157] | 4
14 | O=C(CN(Cc1ccccc1)S(=O)(=O)c1ccccc1)NCc1ccncc1 [Compound 139] | 5
15 | O=C(CNCc1cccnc1)Nc1ccc(OC(F)(F)F)cc1 [Compound 82] | 4
16 | N#Cc1nc(COc2ccccc2)oc1NCCCn1ccnc1 [Compound 81] | 4
17 | COc1cc(OC)cc(-c2cc3nc(C)c(CCC(=O)Nc4cccnc4)c(C)n3n2)c1 [Compound 163] | 4
18 | COc1ccc(-c2cc(C(=O)NCc3cccnc3)[nH]n2)cc1 [Compound 68] | 4
19 | CCn1c(C(=O)NCc2cccnc2)cc2oc3ccccc3c21 [Compound 79] | 4
20 | COc1ccc(S(=O)(=O)NC(C)c2ccc(-n3ccnc3)cc2)c2ccccc12 (stereo not shown) [Compound 147] | 4
21 | COc1cccc(CNCc2cccnc2)c1OCc1ccc(Cl)cc1 [Compound 120] | 4
22 | CC1Cc2cc(C(=O)C3=C(O)C(=O)N(Cc4cccnc4)C3c3cccs3)ccc2O1 (stereo not shown) [Compound 164] | 4

Row | Structure (SMILES) | HTS binding score
23 | COc1cc2c(cc1OC)C(C(=O)N1CCC(Cc3ccccc3)CC1)C(c1cccnc1)N(C)C2=O (stereo not shown) [Compound 185] | 4
24 | Cn1c(SCc2nc(-c3ccc(Cl)cc3)no2)nnc1-c1ccncc1 [Compound 134] | 5
25 | N=C(NOC(=O)c1ccc(Br)o1)c1ccncc1 [Compound 69] | 4
26 | Cc1nnc(NCc2cccnc2)c2c1nnn2Cc1ccc(F)cc1 [Compound 109] | 5
27 | COc1ccc(CNc2nc(-c3cccnc3)nn2S(=O)(=O)c2ccccc2)cc1 [Compound 154] | 4
28 | COc1ccc(C(=O)C(OC(=O)c2ccncc2)c2ccccc2)cc1 (stereo not shown) [Compound 106] | 4
29 | Cc1coc(NC(=O)c2sc3nc(-c4ccncc4)cc(C(F)(F)F)c3c2N)n1 [Compound 153] | 4
30 | c1ccc(-c2cc(NCCCn3ccnc3)n3c(n2)nc2ccccc23)cc1 [Compound 119] | 4
31 | CN1C(=O)c2[nH]nc(-c3ccc(F)cc3)c2C1c1cccnc1 (stereo not shown) [Compound 67] | 5
32 | O=C(c1ccncc1)N(c1ccc2oc3c(c2c1)CCCC3)S(=O)(=O)c1cccs1 [Compound 167] | 4
33 | O=C(NCc1cccnc1)c1ccc(COc2ccccc2Cl)o1 [Compound 103] | 4
34 | Cc1sc(NC(=O)c2ccco2)c(C(c2cccnc2)N2CCN(CCO)CC2)c1C (stereo not shown) [Compound 168] | 4
35 | CCOc1cc(S(=O)(=O)Nc2cccnc2)ccc1Cl [Compound 72] | 4
36 | CCCC/N=C(\S)N1CCn2cccc2C1c1cccnc1 (stereo not shown) [Compound 74] | 4
37 | CCOC(=O)C1=C(C)N(C)C(C)=C(C(=O)OCC)C1c1ccncc1 [Compound 104] | 5
38 | O=C(NCc1cccnc1)c1cc2c(=O)oc3ccccc3c2s1 [Compound 95] | 5
39 | C/C(=N\OC(=O)c1c(-c2ccccc2Cl)noc1C)c1ccncc1 [Compound 115] | 5
40 | CC1=C(C(=O)Nc2cccnc2)C(c2cccc(O)c2)n2nc(SCc3ccccc3)nc2N1 (stereo not shown) [Compound 179] | 4
41 | O=C(CSc1nc(-c2ccc(F)cc2)cc(C(F)(F)F)n1)NCc1ccncc1 [Compound 155] | 4
42 | CC(C)N(CCc1ccncc1)/C(S)=N/C1CCCCC1 [Compound 64] | 5
43 | CCC(C)(C)c1ccc(OCC(=O)Nc2ccncc2)cc1 [Compound 58] | 4
44 | O=S(=O)(NCc1csc(-c2cccnc2)n1)c1ccc(Br)cc1 [Compound 149] | 5

Row | Structure (SMILES) | HTS binding score
45 | COc1ccc(NC(=O)C2=C(C)Nc3nc(-c4ccccc4)nn3C2c2ccncc2)cc1 (stereo not shown) [Compound 166] | 5
46 | C=CCn1c(=O)c(C(=O)NCc2ccncc2)c(O)c2ccccc21 [Compound 94] | 4
47 | COc1cccc(C2C(C(=O)Nc3cccnc3)=C(C)Nc3nc(-c4cccs4)nn32)c1 (stereo not shown) [Compound 169] | 4
48 | COCc1cc(C)nc2c1C(=O)NC(c1cccnc1)N2Cc1ccccc1 (stereo not shown) [Compound 124] | 4
49 | COc1cc(OC)cc(-c2cc3nc(C)c(CCC(=O)NCc4cccnc4)c(C)n3n2)c1 [Compound 171] | 5
50 | Cc1n[nH]c(C)c1CCc1nc2c3ccccc3nc(NCc3cccnc3)n2n1 [Compound 140] | 5
51 | COc1ccc(-c2nc(CSCC(=O)NCc3cccnc3)c(C)o2)cc1 [Compound 133] | 4
52 | O=C(/C(=C/c1ccc(F)cc1)n1cncn1)c1ccc(Cl)cc1Cl [Compound 116] | 4
53 | O=C(CN(c1ccc(Cl)cc1Cl)S(=O)(=O)c1ccccc1)NCc1ccncc1 [Compound 173] | 4
54 | Cc1ccc(S(=O)(=O)N(CC(=O)Nc2cccnc2)c2cccc(C(F)(F)F)c2)cc1 [Compound 172] | 4
55 | O=C(CSc1nc(-c2cccs2)cc(C(F)(F)F)n1)NCc1ccncc1 [Compound 150] | 4
56 | COc1cc(OC)cc(-c2nc3n(n2)C(c2ccncc2)C2=C(O)CC(C)(C)CC2=N3)c1 (stereo not shown) [Compound 162] | 4
57 | Cc1cc(Cl)ccc1OCCCC(=O)Nc1cccnc1 [Compound 62] | 4
58 | O=S(=O)(Nc1ccc(Cc2ccncc2)cc1)c1ccc(Br)cc1 [Compound 142] | 4
59 | O=C(c1ccc(Cl)cc1)C(Oc1ccc(Cl)cc1)n1cncn1 (stereo not shown) [Compound 107] | 5
60 | COC(=O)C1=C(N)Oc2cc(C)n(CCCn3ccnc3)c(=O)c2C1c1ccc(Cl)cc1 (stereo not shown) [Compound 175] | 4
61 | COc1ccc(-c2noc(CSc3nnc(-c4ccncc4)n3CC(C)C)n2)cc1OC [Compound 174] | 4
62 | COc1ccc(-c2[nH]nc3c2C(c2cccnc2)NC3=O)cc1 (stereo not shown) [Compound 65] | 4
63 | O=c1c2cnn(-c3ccc(Cl)cc3)c2ncn1Cc1cccnc1 [Compound 98] | 5
64 | O=C(c1ccncc1)N(Cc1ccccc1)Cc1ccccc1 [Compound 61] | 4
65 | Cc1ccc(S(=O)(=O)N(CC(=O)NCc2cccnc2)c2cccc(Br)c2)cc1 [Compound 180] | 4
66 | COc1ccc(-c2nc3n(n2)C(c2cccnc2)C2=C(O)CCCC2=N3)cc1 (stereo not shown) [Compound 122] | 5

Row | Structure (SMILES) | HTS binding score
67 | O=C(NCc1cccnc1)/C(=C\c1cccc(Oc2ccccc2)c1)S(=O)(=O)c1ccccc1 [Compound 178] | 4
68 | Cc1cc(Cl)ccc1OCCCC(=O)NCc1ccncc1 [Compound 78] | 4
69 | COc1cc(OC)cc(C(=O)Nc2ccc(Cc3ccncc3)cc2)c1 [Compound 108] | 4
70 | O=C(Cn1nc(-c2ccc(Cl)cc2)c2ccccc2c1=O)NCc1cccnc1 [Compound 145] | 4
71 | O=C(CCc1nc(-c2ccc(Cl)cc2)no1)Nc1cccnc1 [Compound 86] | 4
72 | Cc1ccc(S(=O)(=O)NCCCOC(=O)Nc2ccncc2)cc1 [Compound 110] | 5
73 | COc1ccccc1C(=O)O/N=C(\c1ccccc1)c1ccncc1 [Compound 89] | 4
74 | O=C(NCCc1ccncc1)Nc1ccc(Cl)c(Cl)c1 [Compound 70] | 4
75 | N=C(NOS(=O)(=O)c1ccc(Cl)cc1)c1ccncc1 [Compound 71] | 5
76 | COC(=O)C1=C(N)Oc2cc(C)oc(=O)c2C1c1cccnc1 (stereo not shown) [Compound 73] | 4
77 | CCOC(=O)c1cc(-c2ccc(C)cc2)n(CCC(=O)NCc2cccnc2)c1C [Compound 146] | 5
78 | CC1=C(C(=O)OC2CCCC2)C(c2ccncc2)C2=C(O)CC(C)(C)CC2=N1 (stereo not shown) [Compound 129] | 4
79 | COc1ccc(-c2cc(C(F)(F)F)nc(NCc3cccnc3)n2)cc1OC [Compound 137] | 4
80 | Cc1sc2nc(SCC(=O)NCCCn3ccnc3)nc(O)c2c1C [Compound 127] | 4
81 | O=C(NCCCn1ccnc1)c1ccccc1Br [Compound 66] | 4
82 | CCN(Cc1ccncc1)/C(S)=N/CCc1ccccc1 [Compound 59] | 5
83 | Cc1ccccc1CSCc1ccc(C(=O)NCc2cccnc2)o1 [Compound 113] | 4
84 | Cc1ccc(Sc2c(C(=O)NCc3cccnc3)[nH]c3ccccc23)cc1 [Compound 123] | 4
85 | O=P(Nc1cccnc1)(Oc1ccccc1Cl)Oc1ccccc1Cl [Compound 138] | 5
